According to the METLIN SMRT retention time set (Domingo-Almenara et al. 2019):

Assay: gradient 5% acetonitrile 3 min, to 50% in 2 min, to 85% in 15 min, held 3 min, 100 µL/min
Details: column: Zorbax Extend-C18 2.1 x 50 mm; eluents: water / acetonitrile, 0.1% formic acid
Summary of the method: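 In both positive and negative ionization mode, a quadrupole time-of-flight mass spectrometer coupled to HPLC analyzed pure standards run in mixtures of ~100 molecules. The Zorbax Extend-C18 column (2.1 × 50 mm, 1.8 μm) was operated at 100 μL/min with water and acetonitrile, each containing 0.1% formic acid. The dead volume was 40 μL and the dwell volume 900 μL. Retention time came from adduct peaks that were computationally picked and individually inspected by hand.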

Compound | RP-LC retention time
COc1cc(NC(=O)Nc2nccn(-c3cccc(Cl)c3)c2=O)cc(OC)c1 | 978 s
O=S(=O)(NCc1cccnc1-c1ccc(F)cc1)c1ccc(Cl)cc1 | 799 s
O=C1CC(c2nc3ccccc3n2CCN2CCOCC2)CN1Cc1ccc(F)cc1 (centres undefined) | 612 s
O=C(c1cccc(F)c1)N1CCCC1c1nc(-c2ccccc2)no1 (centres undefined) | 946 s
COc1cc(C(=O)Nc2nnc(SCc3nnc(-c4ccccc4)o3)s2)cc(OC)c1OC | 871 s
O=C(NCC1CCN(C(=O)Nc2ccc(F)cc2)CC1)Oc1ccccc1 | 772 s
CCN(CC)C(=O)c1ccc(-c2nc3cc(NS(=O)(=O)c4cc(F)ccc4C)ccc3n2C)cc1 | 723 s
O=C1CC(c2noc(-c3ccccc3F)n2)CN1c1ccc(F)c(Cl)c1 (centres undefined) | 1050 s
CCOCc1nc(C2CCCN(C(=O)NC3CCCC3)C2)no1 (centres undefined) | 766 s
CCc1ccc(CNC(=O)C2CCCN(C(=O)c3[nH]c(C)c(C(=O)OC)c3C)C2)cc1 (centres undefined) | 845 s
O=C(Cn1nc2c3sc(N4CCCCC4)nc3ncn2c1=O)Nc1ccc(Cl)cc1F | 868 s
CCC1Oc2ccc(S(=O)(=O)N3CCC(C(=O)NC4CCCCCC4)CC3)cc2NC1=O (centres undefined) | 951 s
CC(C)c1noc(-c2cc(=O)n(CC(=O)Nc3ccc4c(c3)OCO4)c3ccccc23)n1 | 956 s
COc1ccc(-c2cc3n(n2)CCCN(C(=O)NCc2ccco2)C3)cc1 | 743 s
CC1(C)C(=O)N(CC(=O)Nc2ccc3c(c2)OCO3)c2ccccc21 | 823 s
COCCc1noc(C2CN(C(=O)C(C)C)C2)n1 | 621 s
CCn1cc(CCNC(=O)Nc2cc(C)ccc2C)c2cccnc21 | 723 s
O=C(Nc1nnc(-c2ccco2)o1)c1ccc2c(c1)CCCC2 | 775 s
CCCN1CCN(c2cc(C(=O)O)c3cc(NS(=O)(=O)c4cc(F)ccc4F)ccc3n2)CC1 | 618 s
Nc1ncnc(N2CCN(C(c3ccccc3)c3ccccc3)CC2)c1[N+](=O)[O-] | 698 s
CCCn1ccc2oc(C)c(C(=O)N3CCN(CC(C)C)CC3)c2c1=O | 575 s
CCn1cc(S(=O)(=O)N2C[C@H]3CN(S(=O)(=O)c4cccc(C)c4)C[C@@H](C2)O3)cn1 | 833 s
CCOc1ccc(NC(=O)Nc2nccn(-c3ccc(Br)cc3)c2=O)cc1 | 1040 s

Compound | RP-LC retention time
COc1ccc(N2CC(c3noc(-c4ccc(OC)cc4OC)n3)CC2=O)cc1 (centres undefined) | 861 s
COc1cn(CC(=O)Nc2ccccc2C)c(CSc2nc(C)cs2)cc1=O | 628 s
C=CCN(CC=C)S(=O)(=O)c1ccc(C(=O)Nc2nc3c(s2)CCc2ccccc2-3)cc1 | 1240 s
CC(C)n1cc(S(=O)(=O)NCc2cccc(Cl)c2)c2cccnc21 | 928 s
COc1cc(C(=O)NCCOc2ccc(F)cc2)c([N+](=O)[O-])cc1OC | 777 s
CC(=O)N1CCc2cc(N3CC(C(=O)Nc4cc(F)ccc4Cl)CC3=O)ccc21 (centres undefined) | 749 s
COc1ccccc1NS(=O)(=O)c1cc2n(c1)CCN(CC(C)C)C2=O | 798 s
Fc1ccc(-n2cc(-c3noc(-c4ccccc4F)n3)nn2)cc1 | 1040 s
CCCN(C)c1nccn2c(=O)n(CC(=O)Nc3ccc4c(c3)OCCO4)nc12 | 642 s
CCOc1ccc(-c2[nH]ncc2CNS(=O)(=O)Cc2ccc(C)cc2)cc1 | 853 s
COc1ccc(CCc2nc3nccc(-c4cccnc4)n3n2)cc1OC | 666 s
COc1ccc(-c2nnc(-c3cccc(S(=O)(=O)N4CCCC4)c3)o2)cc1 | 963 s
Cc1ccc(NC(=O)N2CCCC2c2nc(-c3ccccc3C)no2)c(Cl)c1 (centres undefined) | 610 s
CC1=C(C(=O)N2CCOCC2)C(c2ccc(Br)cc2)C2=C(CC(C)(C)CC2=O)N1 (centres undefined) | 723 s
CC(=O)N1CCc2cc(S(=O)(=O)C(C)CC(=O)N3CCN(c4ccc(Cl)cc4)CC3)ccc21 (centres undefined) | 870 s
COc1ccccc1C(=O)N1C[C@@H]2C[C@H]1C[C@@H]2NS(C)(=O)=O | 632 s
O=C(CCc1nc2ccccc2n(CC(=O)Nc2ccc3c(c2)OCO3)c1=O)NCc1ccccc1 | 797 s
O=C(NCC1CN(c2ccc3c(c2)OCO3)C(=O)O1)c1cccs1 (centres undefined) | 678 s
Cc1cc(S(=O)(=O)[C@H]2CS(=O)(=O)C[C@@H]2N2CCN(c3ccccc3)CC2)ccc1F | 994 s
Cc1nc(N)n(CC(=O)NCc2ccc(F)cc2)c(=O)c1C | 842 s
C=CCN1C(=O)COc2ccc(-c3nc(NC(=O)C(CC)CC)sc3C)cc21 | 1050 s
O=C(Nc1ccc(-c2nc3ccccc3o2)cc1)c1ccc(S(=O)(=O)N2CCCC2)cc1 | 1000 s
COC(=O)c1ccccc1NCCO | 787 s

Compound | RP-LC retention time
Cc1nn(Cc2cccc(C(=O)Nc3nc(-c4ccccc4)cs3)c2)c(C)c1Cl | 1160 s
O=C(NCc1ccccc1C(F)(F)F)c1ccnc(N2CCCCC2)n1 | 1190 s
Cc1cccc(-c2noc(Cn3ccn(Cc4ccc(Cl)cc4)c(=O)c3=O)n2)c1 | 960 s
COc1ccc(-n2ccnc(NC(=O)Nc3ccccc3)c2=O)cc1OC | 829 s
Cc1ccc(NC(=O)c2cc(C)n3nccc3n2)cc1C | 1030 s
Cn1c(=O)c(-c2c(Cl)cccc2Cl)cc2cnc(Nc3ccc(N4CCOCC4)cc3)nc21 | 1010 s
Cc1nc(C)c(C(=O)NCc2c(-c3ccccc3)nc3sc(C)nn23)s1 | 737 s
Cc1nc(OCC(=O)Nc2cccc(C)c2C)c2ccccc2n1 | 737 s
CCc1nnc(-c2cc(NC(=O)Cc3c[nH]c4ccccc34)c(C)s2)o1 | 720 s
CCN1c2ccc(F)cc2C(=O)NC12CCN(C(=O)c1cc(F)cc(F)c1)CC2 | 1030 s
COc1ccc(OC)c(NC(=O)N2CCC(c3cnn(-c4ccccc4)c3)CC2)c1 | 956 s
O=C(NCCc1noc(C2CC2)n1)c1ccoc1 | 664 s
c1cc2c(cc1-c1nnc(C3CCC3)o1)OCO2 | 865 s
COc1cccc(S(=O)(=O)NCc2cccnc2-c2cccc(C)c2)c1 | 718 s
NC(=O)c1cccc(Nc2c(-c3ccc(Cl)cc3)nc3cnccn23)c1 | 685 s
CS(=O)(=O)N1C[C@H]2CCN(Cc3ccc(F)cc3F)C[C@H]21 | 584 s
CCOc1ccc(-c2nc(-c3ccc4nnn(C)c4c3)no2)cc1 | 1070 s
COc1nn(C)cc1C(=O)Nc1ccccc1SC | 776 s
COc1ccccc1-c1nc(Cn2nnc(-c3nc(-c4ccncc4)no3)c2C)c(C)o1 | 872 s
COc1cccc2sc(N(CCCN(C)C)C(=O)c3cccc(C(F)(F)F)c3)nc12 | 622 s
CC(C)CNC(=O)Nc1ccc2c(c1)CCN2S(C)(=O)=O | 733 s
O=C(NCc1nnnn1C1CCCCC1)c1ccccc1C(F)(F)F | 782 s
CC(C)C(=O)c1c(C(C)C)nn2ccccc12 | 1010 s

Compound | RP-LC retention time
COc1cccc(CNC(=O)c2nnc(-c3ccc(S(=O)(=O)N4CCC(C)CC4)cc3)o2)c1 | 1030 s
COc1cc(-n2c(C)nc3cc(C(=O)NCC4CCCO4)ccc32)cc(OC)c1OC (centres undefined) | 631 s
Cc1ccc(C)c(N2CCN(C(=O)C3CCCCN3S(=O)(=O)c3ccc(F)cc3)CC2)c1 (centres undefined) | 1250 s
COC(=O)CN1CN(c2ccccc2)C2(CCN(Cc3cccc4ccccc34)CC2)C1=O | 729 s
Cc1ccc(-c2nnc(-c3nc(NCc4ccco4)c4ccccc4n3)o2)cc1 | 995 s
O=C(NCc1ccco1)N(c1ccccc1)c1ccccc1 | 810 s
O=C(Nc1ccccc1)c1cccn1Cc1noc(C2CC2)n1 | 885 s
CC(C)(C)C1CCC2(CC1)CCN(CCCN1CCOCC1)CC2 | 619 s
CC(C)CNC(=O)c1cn(-c2ncccc2-c2nc(C(C)(C)C)no2)cn1 | 872 s
O=C(NCc1ccco1)c1c(O)c2sccc2[nH]c1=O | 787 s
COc1ccc(NC(=O)C2CCCCC2)c2ccccc12 | 861 s
CC(C)S(=O)(=O)c1cc2c(cc1NC(=O)c1ccccc1Cl)n(C)c(=O)n2C | 824 s
O=C(COc1ccc(Cl)cc1)NCC1(c2ccc(F)cc2)CC1 | 988 s
COc1ccc(NC(=O)N2C[C@@H](F)C[C@H]2C(=O)N2CCCCC2)cc1 | 664 s
O=C(O)CCN1C(=O)C2C3C=CC(C3)C2C1=O (centres undefined) | 570 s
Cc1ccc(S(=O)(=O)N2CCc3ccc(NC(=O)Cc4cccs4)cc3C2)cc1 | 942 s
O=C(CC1CCN(C(=O)c2ccc3oc(-c4ccccc4)nc3c2)CC1)NCC1CCCO1 (centres undefined) | 718 s
Cc1cccc(CNC(=O)c2cc3n(n2)CC(C)(C(=O)NC2CCCCC2)N(C)C3=O)c1 (centres undefined) | 884 s
Cc1noc(-c2ccc(OC3CN(C(=O)NC4CCCCC4)C3)cc2)n1 | 846 s
O=C(CN1CCCCC1c1nc(-c2ccc(F)cc2)no1)NCc1ccc(F)cc1 (centres undefined) | 1080 s
